Measured values: patent US20190381071A1, “METHODS AND COMPOSITIONS FOR TREATING AND/OR PREVENTING THE PROGRESSION AND/OR ONSET OF AGE-RELATED NEURODEGENERATION” (Enterin, Inc., priority 2018, published 2019)
Entries after “also recorded” stand apart in the source; their conditions may differ.

Assays:
[1] = tested on: adult mouse; assay: Neuroregeneration in adult mouse brain; type: in vivo
Excerpt: The hypothalamus is of particular interest because it happens to be the site of localization of Aminosterol 1436 in the brain.

[2] = tested on: B6D2F1 (BDF1) mice; assay: Dose response of growth delay in BDF1 mice (Example 1, FIG. 2); type: in vivo; settings: for age at which animals reached maturity: male BDF1 mice, controls 120 days; for delay in reaching maturity, as measured by end weight: vs control
Description: While all animals reached the mature weight of about 40 grams, the control animals reached maturity at 120 days, and the animals that received 5 and 10 mg/kg of Aminosterol 1436 reached maturity at 150 and 255 days, respectively.
An experiment was conducted to explore the dose response to a delay in growth of B6D2F1 (BDF1) mice to Aminsoterol 1436.
30 day old male BDF1 mice received either vehicle or Aminosterol 1436 intraveneously (IV) at 5 mg/kg or 10 mg/kg (n=15 for each treatment arm) every 3 days until 51 days of age. The Aminosterol 1436 was administered as a aqueous solution in water. BDF1 mice are available from Charles River Laboratories. The animals were fed standard lab chow, offered ad libitum. The animals were weighed and body length measured every 5 days.
However, while the control animals reached maturity at 120 days, the animals that received 5 mg/kg of Aminosterol 1436 reached maturity at 150 days, corresponding to a 25% delay in reaching maturity, as measured by end weight. […] Most importantly, both treated and untreated animals reached normal adult dimensions, albeit at different rates.

[3] = tested on: HIV; settings: tissue culture; U.S. Pat. No. 5,763,430; cited from earlier work
[4] = U.S. Pat. No. 6,143,738; Ahima et al. (2002); cited from earlier work
[5] = tested on: C57BL/6 males; assay: Growth delay in C57BL/6 mice (Example 2, FIG. 3); type: in vivo; settings: for weight: 10 mg/kg i.p. every 3 days for two doses
Description: Animals were then weighed and body length measured once weekly for a period of 40 days.
An experiment was conducted to determine whether treatment of animals with Aminosterol 1436 would delay growth of the animal.
C57BL/6 males (12-16 grams) were administered either vehicle or 10 mg/kg (i.p.) of Aminosterol 1436 every 3 days for two doses, for a total of 20 mg/kg over a 6 day period. The mice were about 3 weeks old, and there were 10 mice/arm. The animals were weighed and body length measured once weekly for a period of 40 days.
The results shown in FIG. 3 indicate that growth rates of the animals were slowed upon administration of Aminosterol 1436, which is consistent with the results shown in FIG. 2 and described in Example 1.

[6] = Brain localisation of radioactive Aminosterol 1436 after IV or ICV administration (FIG. 1); type: in vivo; settings: radioactive compound, rat, IV via peripheral vein or injected into 3rd ventricle (ICV)
Excerpt: The exact mechanism by which Aminosterol 1436 achieves its effect on preventing, delaying onset, and/or treating neurodegeneration, delaying maturity, retarding aging, and increasing potential lifespan is not known. However, without being bound by theory, Applicant theorizes that the effect of Aminosterol 1436 is likely in part due to the drug's effects on the hypothalamus within the brain of the animal.

[7] = molecular target: T1, phosphatase PTP1B (Homo sapiens, UniProt P18031); settings: Lantz et al., 2010; cited from earlier work
T1 sequence (P18031 1-435): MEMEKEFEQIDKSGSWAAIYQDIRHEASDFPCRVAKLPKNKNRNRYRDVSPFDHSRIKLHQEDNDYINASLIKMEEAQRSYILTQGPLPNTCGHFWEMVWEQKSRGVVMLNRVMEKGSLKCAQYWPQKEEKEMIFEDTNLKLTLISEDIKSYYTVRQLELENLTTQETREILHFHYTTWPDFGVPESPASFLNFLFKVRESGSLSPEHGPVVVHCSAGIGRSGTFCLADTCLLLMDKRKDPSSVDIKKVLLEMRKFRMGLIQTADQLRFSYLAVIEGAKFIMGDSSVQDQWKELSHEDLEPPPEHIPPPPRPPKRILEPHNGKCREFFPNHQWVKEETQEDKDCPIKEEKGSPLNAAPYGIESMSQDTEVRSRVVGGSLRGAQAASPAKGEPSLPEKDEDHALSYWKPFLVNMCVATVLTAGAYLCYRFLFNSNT

Compound | neuroregeneration [1] | number of cells in brain areas ([1]; subependymal zone, granular layers of olfactory bulb, medial and lateral hypothalamus, thalamus) | growth rate slower than the controls (by increasing weight) ([2]; 5 mg/kg IV) | age at which animals reached maturity ([2]; 5 mg/kg IV every 3 days from 30 to 51 days of age) | delay in reaching maturity, as measured by end weight ([2]; 5 mg/kg IV) | growth rate slowed (by increasing weight) ([2]; 10 mg/kg IV) | age at which animals reached maturity ([2]; 10 mg/kg IV every 3 days from 30 to 51 days of age) | delay in reaching maturity, as measured by end weight ([2]; 10 mg/kg IV) | linear growth ([2]; 5 and 10 mg/kg IV, data not shown) | mature weight reached ([2]; all animals (5 mg/kg, 10 mg/kg and control)) | antiviral activity against HIV [3] | appetite suppression and weight loss [4] | weight ([5]; Day 0, control 16 g) | decrease in weight ([5]; Day 0 to Day 40, 10 mg/kg i.p. x 2, control increase of 50%) | weight ([5]; Day 40, control 24 g) | accumulation in brain [6] | inhibition of PTP1B [7]
CC(C)[C@@H](CC[C@@H](C)[C@H]1CC[C@H]2[C@@H]3[C@H](O)C[C@H]4C[C@@H](NCCCNCCCCNCCCN)CC[C@]4(C)[C@H]3CC[C@]12C)OS(=O)(=O)O [Aminosterol 1436, trodusquemine] | stimulates neuroregeneration | increase | about 30% | 150 days | 25% | 50% | 255 days | 112.5% | slowed to a corresponding degree | about 40 grams | exhibits antiviral activity against HIV | potent appetite suppression and promotion of dose-dependent weight loss | 12 g | 8.3% | 11 g | accumulation of Aminosterol 1436 within the centers of the brain that control growth, maturation, and senescence; also recorded: accumulates within the centers of the brain that control growth, maturation and senescence | inhibit the phosphatase PTP1B
CC(C)[C@@H](CC[C@@H](C)[C@H]1CC[C@H]2[C@@H]3[C@H](O)C[C@H]4C[C@@H](NCCCNCCCCN)CC[C@]4(C)[C@H]3CC[C@]12C)OS(=O)(=O)O [squalamine, reference compound] |  |  |  |  |  |  |  |  |  |  |  | not shared with squalamine |  |  |  |  | 
